# Results reported in ChEMBL document CHEMBL1140178, “Design, synthesis, and biological evaluation of novel constrained meta-substituted phenyl propanoic acids as peroxisome proliferator-activated receptor alpha and gamma dual agonists” (J Med Chem, 2008).
# pEC50: −log10 of the molar value. Active and inactive are the calls of the source. The calls are words filed in the database; no cut-off is given here.
# Experiments:
# [1] = target: T1, Peroxisome proliferator-activated receptor gamma (Homo sapiens, UniProt P37231)
# T1 sequence (P37231 whole entry): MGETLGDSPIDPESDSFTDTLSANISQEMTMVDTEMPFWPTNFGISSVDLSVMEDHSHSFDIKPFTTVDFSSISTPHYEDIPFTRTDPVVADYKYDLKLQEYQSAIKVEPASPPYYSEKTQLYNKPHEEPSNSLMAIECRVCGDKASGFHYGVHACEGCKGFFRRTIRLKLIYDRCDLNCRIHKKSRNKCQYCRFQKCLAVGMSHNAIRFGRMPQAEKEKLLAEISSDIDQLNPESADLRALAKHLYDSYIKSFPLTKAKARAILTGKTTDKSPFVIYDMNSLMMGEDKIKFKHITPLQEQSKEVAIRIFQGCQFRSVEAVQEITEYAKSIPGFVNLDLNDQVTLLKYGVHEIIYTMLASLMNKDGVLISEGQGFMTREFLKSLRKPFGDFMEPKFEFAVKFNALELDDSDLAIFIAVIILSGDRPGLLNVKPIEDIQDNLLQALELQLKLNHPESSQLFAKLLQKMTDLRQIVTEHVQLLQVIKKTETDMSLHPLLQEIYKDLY
# Description: Agonist activity at human PPARgamma ligand binding domain expressed in african green monkey CV1 cells co-transfected with fused Gal4-DBD by transactivation assay
# [2] = target: T2, Peroxisome proliferator-activated receptor alpha (Homo sapiens) (UniProt Q07869); assay: Agonist activity at human PPARalpha ligand binding domain expressed in african green monkey CV1 cells co-transfected with fused Gal4-DBD by transactivation assay relative to gemfibrozil; format: cell-based; details: CV-1
# T2 sequence (whole entry): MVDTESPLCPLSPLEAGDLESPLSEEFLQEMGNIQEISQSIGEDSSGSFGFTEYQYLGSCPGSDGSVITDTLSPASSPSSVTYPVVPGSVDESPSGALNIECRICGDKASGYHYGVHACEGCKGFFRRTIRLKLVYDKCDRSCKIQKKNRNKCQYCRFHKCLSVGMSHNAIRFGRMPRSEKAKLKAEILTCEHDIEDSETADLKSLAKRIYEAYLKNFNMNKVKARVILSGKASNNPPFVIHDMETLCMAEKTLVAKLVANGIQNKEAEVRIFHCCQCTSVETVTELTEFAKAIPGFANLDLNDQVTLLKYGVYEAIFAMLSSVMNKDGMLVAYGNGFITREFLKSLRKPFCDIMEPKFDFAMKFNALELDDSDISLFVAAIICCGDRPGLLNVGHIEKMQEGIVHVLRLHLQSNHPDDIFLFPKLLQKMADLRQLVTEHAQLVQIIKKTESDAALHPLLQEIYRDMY
# [3] = target: T3, Peroxisome proliferator-activated receptor alpha (Homo sapiens, UniProt Q07869); assay: (§1) Agonist activity at human PPARalpha ligand binding domain expressed in african green monkey CV1 cells co-transfected with fused Gal4-DBD by transactivation assay; format: cell-based, CV-1
# T3 sequence (Q07869 whole entry): T2 sequence (whole entry)
# [4] = system: CV-1; assay: Ratio of EC50 for human PPARalpha ligand binding domain expressed in african green monkey CV1 cells to EC50 for human PPARgamma ligand binding domain expressed in african green monkey CV1 cells; format: cell-based
# [5] = system: Mus musculus; assay: Antihyperglycemic effect in db/db mouse assessed as inhibition of blood glucose at 3 mg/kg, po after 5 days; format: functional; details: 120 h
# [6] = system: Mus musculus; assay: Antihyperglycemic effect in db/db mouse assessed as inhibition of blood glucose at 20 mg/kg, po after 5 days; format: functional; details: 120 h
# [7] = target: T2, Peroxisome proliferator-activated receptor alpha (Homo sapiens); assay: as §1; format: cell-based; details: CV-1
# [8] = system: Mus musculus; assay: Toxicity in db/db mouse assessed as weight gain at 3 mg/kg, po after 7 days; format: organism-based; set-up: dose 3 mg/kg, route oral; details: in vivo, 168 h
# [9] = system: Mus musculus; assay: Antihyperglycemic effect in db/db mouse assessed as inhibition of blood glucose at 3 mg/kg, po after 7 days; format: functional; details: 168 h
# [10] = system: Mus musculus; assay: Toxicity in db/db mouse assessed as weight gain at 0.3 mg/kg, po after 11 days; format: organism-based; set-up: dose 0.3 mg/kg, route oral; details: in vivo, 264 h
# [11] = system: Mus musculus; assay: Antihyperglycemic effect in db/db mouse assessed as inhibition of blood glucose at 0.3 mg/kg, po after 7 days; format: functional; details: 168 h
# [12] = system: Mus musculus; assay: Antihyperglycemic effect in db/db mouse assessed as inhibition of blood glucose at 0.3 mg/kg, po after 4 days; format: functional; details: 96 h
# [13] = system: Mus musculus; assay: Toxicity in db/db mouse assessed as weight gain at 0.3 mg/kg, po after 7 days; format: organism-based; set-up: dose 0.3 mg/kg, route oral; details: in vivo, 168 h
# [14] = system: Mus musculus; assay: Antihyperglycemic effect in db/db mouse assessed as inhibition of blood glucose at 0.3 mg/kg, po after 11 days; format: functional; details: 264 h
# [15] = system: Mus musculus; assay: Toxicity in db/db mouse assessed as weight gain at 3 mg/kg, po after 4 days; format: organism-based; set-up: dose 3 mg/kg, route oral; details: in vivo, 96 h
# [16] = system: Mus musculus; assay: Antihyperglycemic effect in db/db mouse assessed as inhibition of blood glucose at 3 mg/kg, po after 4 days; format: functional; details: 96 h
# [17] = system: Mus musculus; assay: Toxicity in db/db mouse assessed as weight gain at 0.3 mg/kg, po after 4 days; format: organism-based; set-up: dose 0.3 mg/kg, route oral; details: in vivo, 96 h
# [18] = system: Mus musculus; assay: Antihyperglycemic effect in db/db mouse assessed as inhibition of blood glucose at 3 mg/kg, po after 11 days; format: functional; details: 264 h
# [19] = system: Mus musculus; assay: Toxicity in db/db mouse assessed as weight gain at 3 mg/kg, po after 11 days; format: organism-based; set-up: dose 3 mg/kg, route oral; details: in vivo, 264 h
# [20] = system: Mus musculus; assay: Antihyperglycemic effect in db/db mouse assessed as inhibition of blood glucose at 0.3 mg/kg, po after 5 days; format: functional; details: 120 h
pEC50 [1],Emax [2] [%],pEC50 [3],SMILES,other results
7.34,185,5.53,CCO[C@@H](Cc1cccc(/C(C)=N/OCc2ccc(C(F)(F)F)cc2)c1)C(=O)O,
7.40,139,6.17,CCO[C@@H](Cc1cccc(/C(C)=N/OCc2ccc(I)cc2)c1)C(=O)O,
5.73,262,5.51,CCO[C@@H](Cc1cccc(C2=NOC(CCc3ccccc3)C2)c1)C(=O)O (stereo partly drawn),Ratio EC50 [4]: 1.7
,100,,Cc1ccc(C)c(OCCCC(C)(C)C(=O)O)c1,
4.43,48,4.52,CCO[C@H](Cc1cccc(-c2cc(-c3ccccc3)on2)c1)C(=O)O,
5.48,162,5.25,CCO[C@@H](Cc1cccc(-c2cc(-c3ccccc3)on2)c1)C(=O)O,
,94,,CCO[C@@H](Cc1ccc(OCCc2ccc(OS(C)(=O)=O)cc2)cc1)C(=O)O,
6.09,125,5.17,CCO[C@@H](Cc1cccc(C2=NOC(c3ccc(Cl)cc3)C2)c1)C(=O)O (stereo partly drawn),inhibition in vivo at 3 mg/kg [5]: 41.7%
4.60,217,4.35,CCO[C@H](Cc1cccc(C2=NOC(CCc3ccccc3)C2)c1)C(=O)O (stereo partly drawn),Ratio EC50 [4]: 1.8
,56,,CN(CCOc1ccc(CC2SC(=O)NC2=O)cc1)c1ccccn1 (stereo not drawn),
6.13,144,5.36,CCO[C@@H](Cc1cccc(C2=NOC(c3ccc(Br)cc3)C2)c1)C(=O)O (stereo partly drawn),
6.92,71,5.54,CCO[C@@H](Cc1cccc(/C(C)=N/OCc2ccccc2)c1)C(=O)O,
6.22,162,5.56,CCO[C@@H](Cc1cccc(C2=NOC(c3ccc(I)cc3)C2)c1)C(=O)O (stereo partly drawn),
6.76,179,5.39,CCO[C@@H](Cc1cccc(/C(C)=N/OCc2ccc(OC)cc2)c1)C(=O)O,
5.79,165,4.88,CCO[C@@H](Cc1cccc(/C(C)=N/OCc2ccc(OS(C)(=O)=O)cc2)c1)C(=O)O,
7.59,143,5.49,CCO[C@@H](Cc1cccc(/C(C)=N/OCc2ccccc2Cl)c1)C(=O)O,Ratio EC50 [4]: 126
7.44,150,5.57,CCO[C@@H](Cc1cccc(/C(C)=N/OCc2ccc(Br)cc2)c1)C(=O)O,
5.72,8,,CCO[C@H](Cc1cccc(/C(C)=N/OCc2ccccc2)c1)C(=O)O,inhibition in vivo at 20 mg/kg [6]: 22.3%; Activity [7]: inactive
6.55,137,4.92,CCO[C@@H](Cc1cccc(/C(C)=N/OCc2ccc(C(C)(C)C)cc2)c1)C(=O)O,
6.86,299,5.23,CCO[C@@H](Cc1cccc(/C(C)=N/OCc2ccc(F)cc2)c1)C(=O)O,Activity [8]: 3.6 g; inhibition in vivo at 3 mg/kg [9]: 73%; Activity [10]: 5.6 g; inhibition in vivo at 0.3 mg/kg [11]: 58%; inhibition in vivo at 0.3 mg/kg [12]: 39%; Activity [13]: 3.6 g; inhibition in vivo at 0.3 mg/kg [14]: 68%; Activity [15]: 2.1 g; inhibition in vivo at 3 mg/kg [16]: 64%; Activity [17]: 1.9 g; inhibition in vivo at 3 mg/kg [5]: 61%; inhibition in vivo at 3 mg/kg [18]: 71%; Activity [19]: 5.6 g; inhibition in vivo at 0.3 mg/kg [20]: 40.7%
5.16,104,4.67,CCO[C@@H](Cc1cccc(C2=NOC(Cc3ccccc3)C2)c1)C(=O)O (stereo partly drawn),Ratio EC50 [4]: 3.1
5.53,58,4.23,CCO[C@@H](Cc1cccc(/C(C)=N/OCc2ccc(O)cc2)c1)C(=O)O,
7.55,386,5.14,CCO[C@@H](Cc1cccc(/C(C)=N/OCc2ccc(Cl)cc2)c1)C(=O)O,Activity [8]: 3.7 g; inhibition in vivo at 3 mg/kg [9]: 73%; Activity [10]: 6 g; Ratio EC50 [4]: 260; inhibition in vivo at 0.3 mg/kg [11]: 60%; inhibition in vivo at 0.3 mg/kg [12]: 63%; Activity [13]: 3.7 g; inhibition in vivo at 0.3 mg/kg [14]: 71%; Activity [15]: 2.5 g; inhibition in vivo at 3 mg/kg [16]: 61%; Activity [17]: 1.9 g; inhibition in vivo at 3 mg/kg [5]: 60.1%; inhibition in vivo at 3 mg/kg [18]: 76%; Activity [19]: 5.3 g; inhibition in vivo at 0.3 mg/kg [20]: 19.3%
4.41,0,,CCO[C@@H](Cc1cccc(C2=NOC(c3ccc(O)cc3)C2)c1)C(=O)O (stereo partly drawn),
5.56,138,5.40,CCO[C@@H](Cc1cccc(C2=NOC(c3ccc(C(C)(C)C)cc3)C2)c1)C(=O)O (stereo partly drawn),
5.94,119,4.61,CCO[C@@H](Cc1cccc(C2=NOC(c3ccc(F)cc3)C2)c1)C(=O)O (stereo partly drawn),
,,,COc1ccc(OC(=O)N(CC(=O)O)Cc2ccc(OCCc3nc(-c4ccccc4)oc3C)cc2)cc1 [MURAGLITAZAR],Activity [8]: 3.6 g; inhibition in vivo at 3 mg/kg [9]: 67%; Activity [15]: 2 g; inhibition in vivo at 3 mg/kg [16]: 53%; inhibition in vivo at 3 mg/kg [18]: 68%; Activity [19]: 6.3 g
4.38,6,,CCO[C@H](Cc1cccc(C2=NOC(Cc3ccccc3)C2)c1)C(=O)O (stereo partly drawn),Activity [7]: inactive
5.50,156,4.95,CCO[C@@H](Cc1cccc(C2=NOC(c3ccc(OC)cc3)C2)c1)C(=O)O (stereo partly drawn),
4.55,107,4.43,CCO[C@@H](Cc1cccc(C2=NOC(c3ccc(OS(C)(=O)=O)cc3)C2)c1)C(=O)O (stereo partly drawn),

SMILES,pEC50 [1],Emax [2] [%],pEC50 [3],other results
CCO[C@H](Cc1cccc(C2=NOC(c3ccccc3)C2)c1)C(=O)O (stereo partly drawn),4.60,,,inhibition in vivo at 20 mg/kg [6]: 3%; Activity [7]: inactive
CCO[C@@H](Cc1cccc(/C(C)=N/OCc2cccc(Cl)c2)c1)C(=O)O,8.00,165,5.64,Ratio EC50 [4]: 227
CCO[C@@H](Cc1cccc(C2=NOC(c3ccccc3)C2)c1)C(=O)O (stereo partly drawn),6.66,78,5.40,Ratio EC50 [4]: 18; inhibition in vivo at 20 mg/kg [6]: 27%
